In patent US10899852B2, “Benzil monoketals and the use thereof” (Merck Patent GmbH, priority 2015, dated 2021):

Test: storage test of polymerisable liquid-crystal mixture P-1 with sealant containing photoinitiator, then UV irradiation in PS-VA test cells; RM-1 concentration by HPLC
Details: inferred from RM-1 polymerisation after storage 7 d at 80° C.
Procedure: A polymerisable liquid-crystal mixture P-1 consisting of • 1. 99.7% by weight of the nematic liquid-crystal mixture M-1 and • 2. 0.3% by weight of the polymerisable compound RM-1
[drawing 37] is prepared. Three samples of in each case 0.5 g of mixture P-1 are stored together with in each case 1 g of the commercially available sealant Unocol 2094® (APM Technica GmbH, Pürgen-Ummendorf), the latter in each case containing • 1. no photoinitiator • 2. 3.0% by weight of the photoinitiator according to the invention from Example 1 • 3. 3.0% by weight of the commercially available photoinitiator Irgacure651® of the structure shown below in a tightly sealed vial at 80° C. for 7 d with exclusion of air and light. A fourth sample of mixture P-1 is stored under the same conditions without the presence of sealant (blank experiment).
The mixtures are subsequently separated off from the sealant, in each case divided into two parts, introduced into PS-VA test cells and irradiated with a metal halide UV lamp with an intensity of 100 mW/cm^2 at 40° C. for a duration of 60 s or 180 s.
The PS-VA test cells consist of two plane-parallel glass plates having a cell gap of 4 μm, each of which are coated with an ITO electrode and with a polyimide alignment layer on top.
After the irradiation, the concentration of the polymerisable compound RM-1 is determined by HPLC.

Compound | photoinitiator dissolved out of the sealant into the liquid crystal during the storage test
COC(OC)(C(=O)c1ccccc1)c1ccccc1 [Irgacure651®] | considerable amounts of photoinitiator have dissolved in the liquid-crystal mixture
COC(OC)(C(=O)c1ccc(OCC(O)CO)cc1)c1ccc(OCC(O)CO)cc1 (centres unmarked) [Example 1, 1,2-Bis[4-(2,3-dihydroxypropoxy)phenyl]-2,2-dimethoxyethanone] | no photoinitiator according to the invention has been dissolved out of the sealant
